Test results: patent US20140135281A1, “METHODS FOR C[…] MITES” (SYNGENTA PARTICIPATIONS AG, priority 2011, published 2014)

Tested on: Varroa destructor
Assay: Contact test of Varroa mite adults on Potter-tower-treated Petri dishes, mortality
Format: in vivo
Settings: concentration of formulation (WP75) 67 microgramme; in 2 days; adult mites, 4 dishes of 5, spray deposit contact
Excerpt: Varroa mites came from bee colonies provided by a beekeeper. The mite population is kept in a dedicated apiary. For screening needs adults are collected on the same day as the beginning of experiment, either in beehive cells containing brood of worker bees or drones, or directly on bees emerging during collection.
Bee nymphs needed to feed adults of Varroa mites during experiments are choosen within the frames from which Varroa is also collected. They are collected at the stage of nymph with white or pink coloured eyes according methology described by Rembold et Kremer (Characterization of postembryonic developmental stages of the female castes of the honey bee, Apis mellifera L.. Apidologie 11: 29-38).
3 cm diameter Petri dishes were used as confinement material of Varroa mites during experiments. Covers with wire mesh were put on the top of each Petri dish in order to avoid the mites to run away but also to keep favorable humidity for the bee nymph.
Applications were done with a Potter tower (described in “An improved apparatus for applying direct sprays and surface films with data on the electrostatic charge on atomize spray fluids.” Annal of Applied Biology, 39 : 1-28.). The active substance was apllied to achieve uniform distribution on the Petri dish (1.5 mg±0.2 mg/cm^2). A check with distilled water was also tested. […]

**Q.** `Nc1nc(N)nc(NC2CC2)n1` [cyromazine] was tested. Which “% mortality of Varroa” value did it give?
**A.** The value was 80% in 2 days.
